Measured values reported in ChEMBL document CHEMBL6120997, “Macrocyclic Compounds with Diverse Skeletons from the Roots of Myrica nana and Their Spasmolytic Activity” (J Nat Prod, 2025).
Calls of active or inactive are those of the source. No cut-off for these calls is given here.

Key:
Ileum [1] = assay: Ex vivo spasmolytic activity in ACh-induced contractions in Sprague-Dawley rat ileum incubated for 5 mins; assay type: functional, tissue-based
Ileum [2] = assay: Ex vivo spasmolytic activity in ACh-induced contractions in Sprague-Dawley rat ileum at 0.5 to 8 uM incubated for 5 mins relative to control; assay type: functional; conditions: dose 0.5-8 µM
Ileum [3] = assay: Ex vivo spasmolytic activity in ACh-induced contractions in Sprague-Dawley rat ileum incubated for 5 mins in presence of 4-AP; assay type: functional, tissue-based
Ileum [4] = assay: Ex vivo spasmolytic activity in ACh-induced contractions in Sprague-Dawley rat ileum at 0.5 to 8 uM incubated for 5 mins in presence of 4-AP relative to control; assay type: functional; conditions: dose 0.5-8 µM
Ileum [5] = assay: Ex vivo spasmolytic activity in ACh-induced contractions in Sprague-Dawley rat ileum incubated for 5 mins in presence of TEA; assay type: functional, tissue-based
Ileum [6] = assay: Ex vivo spasmolytic activity in ACh-induced contractions in Sprague-Dawley rat ileum at 0.5 to 8 uM incubated for 5 mins in presence of TEA relative to control; assay type: functional; conditions: dose 0.5-8 µM
Ileum [7] = assay: Ex vivo spasmolytic activity in ACh-induced contractions in Sprague-Dawley rat ileum incubated for 5 mins in presence of CsCl; assay type: functional, tissue-based
Ileum [8] = assay: Ex vivo spasmolytic activity in ACh-induced contractions in Sprague-Dawley rat ileum at 0.5 to 8 uM incubated for 5 mins in presence of CsCl relative to control; assay type: functional; conditions: dose 0.5-8 µM
Ileum [9] = assay: Ex vivo spasmolytic activity in ACh-induced contractions in Sprague-Dawley rat ileum incubated for 5 mins in presence of GLIB; assay type: functional, tissue-based
Ileum [10] = assay: Ex vivo spasmolytic activity in ACh-induced contractions in Sprague-Dawley rat ileum at 0.5 to 8 uM incubated for 5 mins in presence of GLIB relative to control; assay type: functional; conditions: dose 0.5-8 µM
Ileum [11] = assay: Ex vivo spasmolytic activity in ACh-induced contractions in Sprague-Dawley rat ileum incubated for 5 mins in presence L-NAME; assay type: functional, tissue-based
Ileum [12] = assay: Ex vivo spasmolytic activity in ACh-induced contractions in Sprague-Dawley rat ileum at 0.5 to 8 uM incubated for 5 mins in presence L-NAME relative to control; assay type: functional; conditions: dose 0.5-8 µM
Ileum [13] = assay: Ex vivo spasmolytic activity in ACh-induced contractions in Sprague-Dawley rat ileum incubated for 5 mins in presence ODQ; assay type: functional, tissue-based
Ileum [14] = assay: Ex vivo spasmolytic activity in ACh-induced contractions in Sprague-Dawley rat ileum at 0.5 to 8 uM incubated for 5 mins in presence ODQ relative to control; assay type: functional; conditions: dose 0.5-8 µM
Ileum [15] = assay: Ex vivo spasmolytic activity in ACh-induced contractions in Sprague-Dawley rat ileum at 2 uM incubated for 5 mins; assay type: functional, tissue-based
Ileum [16] = assay: Ex vivo spasmolytic activity in CaCl2-induced contractions in Sprague-Dawley rat ileum at 1 to 2 uM incubated for 15 mins; assay type: functional, tissue-based; conditions: dose 1-2 µM

Row | Structure (SMILES) | EC50 (Ileum [1]) [nM] | further results
1 | COc1c2cc(c(O)c1OC)CCCCC(=O)CCc1ccc(O)c-2c1 [MYRICANONE] | 2900 | –
2 | COc1c2cc(c(O)c1OC)CCCC(=O)[C@@H](O)Cc1ccc(O)c-2c1 | 5100 | –
3 | CCN(CC)CCOC(=O)C1(C2CCCCC2)CCCCC1 [DICYCLOMINE] | 600 | –
4 | COc1c2cc(c(O[C@@H]3O[C@H](CO)[C@@H](O)[C@H](O)[C@H]3O)c1OC)CCCCC(=O)CCc1ccc(O)c-2c1 | 2300 | –
5 | COc1c2ccc(c1O[C@@H]1O[C@H](CO)[C@@H](O)[C@H](O)[C@H]1O)CCCCC(O)CCc1ccc(O)c(c1)O2 (stereo partly drawn) | 3600 | –
6 | COc1c2cc(c(OC)c1OC)-c1cc(ccc1O)[C@H](O)CC(=O)CCCC2 | 4600 | –
7 | COc1c2cc(c(O[C@@H]3O[C@H](CO)[C@@H](O)[C@H](O)[C@H]3O)c1OC)CCCC[C@H](O)CCc1ccc(O)c-2c1 | 2400 | –
8 | COc1c2cc(c(OC)c1OC)-c1cc(ccc1O)C[C@@H](O)[C@@H](O)CCCC2 | 2800 | –
9 | COc1c2cc(c(O[C@@H]3O[C@H](CO)[C@@H](O)[C@H](O)[C@H]3O)c1OC)CCCC[C@@H](OC(C)=O)CCc1ccc(O)c-2c1 | 2800 | –
10 | COc1c2ccc(c1O)CCCCC(=O)CCc1ccc(O)c(c1)O2 | 3800 | –

Further lines, with some results ahead:

Row | EC50 (Ileum [1]) [nM] | Structure (SMILES) | further results
11 | 3700 | COc1c2cc(c(O)c1OC)CCCC[C@@H](OC(C)=O)CCc1ccc(O)c-2c1 | –
12 | 3200 | COc1c2cc(c(O[C@@H]3O[C@H](CO)[C@@H](O)[C@H](O)[C@H]3O)c1OC)CCCC[C@@H](O)CCc1ccc(O)c-2c1 | –
13 | 1400 | COc1cc2cc(c1OC)-c1cc(ccc1O)C[C@H](O)C(=O)CCC2 | Emax (Ileum [2]): 79.8%; EC50 (Ileum [3]): 1900 nM; Emax (Ileum [4]): 71.9%; EC50 (Ileum [5]): 1500 nM; Emax (Ileum [6]): 60.8%; EC50 (Ileum [7]): 1600 nM; Emax (Ileum [8]): 82.7%; EC50 (Ileum [9]): 1700 nM; Emax (Ileum [10]): 84.9%; EC50 (Ileum [11]): 5100 nM; Emax (Ileum [12]): 43%; EC50 (Ileum [13]): 1600 nM; Emax (Ileum [14]): 81.7%; Activity (Ileum [15]): Active; Activity Less Than Dichloromethane; Activity (Ileum [16]): Active
14 | 5000 | COc1cc2cc(c1OC)-c1cc(ccc1O)CCC(=O)CCCC2 | –
15 | 1600 | COc1c2cc(c(O[C@@H]3O[C@H](CO)[C@@H](O)[C@H](O)[C@H]3O)c1OC)CCCC(=O)[C@@H](O)Cc1ccc(O)c-2c1 | –
16 | 2900 | COc1c2cc(c(O)c1OC)CCCC[C@@H](O)CCc1ccc(O)c-2c1 | –
17 | 1500 | COc1c2cc(c(OC)c1O)-c1cc(ccc1O)CC[C@H](O)CCCC2 | –
18 | 2400 | COc1c2cc(c(O[C@@H]3O[C@H](CO)[C@@H](O)[C@H](O)[C@H]3O)c1OC)CCCCC(=O)[C@@H](O)Cc1ccc(O)c-2c1 | –
